Results reported in patent publication US7642269B2, “Pyrrolo[3,2-B]pyridine derivatives and processes for the preparation thereof” (Yuhan Corporation, priority 2005, dated 2010).
Structures can show the parent of a compound that is named as a salt.

What follows are compounds tested against T1, H^+/K^+-ATPase (Sus scrofa, UniProt P19156) (assay: Inhibitory effects on proton pump (H^+/K^+-ATPase) activity, hog gastric vesicles). Settings: K^+ stimulated H^+/K^+-ATPase activity, hog gastric vesicle, Pi measured at 620 nm.
T1 construct: used as an enzyme source of the in vitro enzyme reaction assay of proton pump; from tissue; host or cells: hog gastric fundic mucosa (membrane vesicles, lyophilized)
T1 sequence (P19156 2-1034 limits assumed): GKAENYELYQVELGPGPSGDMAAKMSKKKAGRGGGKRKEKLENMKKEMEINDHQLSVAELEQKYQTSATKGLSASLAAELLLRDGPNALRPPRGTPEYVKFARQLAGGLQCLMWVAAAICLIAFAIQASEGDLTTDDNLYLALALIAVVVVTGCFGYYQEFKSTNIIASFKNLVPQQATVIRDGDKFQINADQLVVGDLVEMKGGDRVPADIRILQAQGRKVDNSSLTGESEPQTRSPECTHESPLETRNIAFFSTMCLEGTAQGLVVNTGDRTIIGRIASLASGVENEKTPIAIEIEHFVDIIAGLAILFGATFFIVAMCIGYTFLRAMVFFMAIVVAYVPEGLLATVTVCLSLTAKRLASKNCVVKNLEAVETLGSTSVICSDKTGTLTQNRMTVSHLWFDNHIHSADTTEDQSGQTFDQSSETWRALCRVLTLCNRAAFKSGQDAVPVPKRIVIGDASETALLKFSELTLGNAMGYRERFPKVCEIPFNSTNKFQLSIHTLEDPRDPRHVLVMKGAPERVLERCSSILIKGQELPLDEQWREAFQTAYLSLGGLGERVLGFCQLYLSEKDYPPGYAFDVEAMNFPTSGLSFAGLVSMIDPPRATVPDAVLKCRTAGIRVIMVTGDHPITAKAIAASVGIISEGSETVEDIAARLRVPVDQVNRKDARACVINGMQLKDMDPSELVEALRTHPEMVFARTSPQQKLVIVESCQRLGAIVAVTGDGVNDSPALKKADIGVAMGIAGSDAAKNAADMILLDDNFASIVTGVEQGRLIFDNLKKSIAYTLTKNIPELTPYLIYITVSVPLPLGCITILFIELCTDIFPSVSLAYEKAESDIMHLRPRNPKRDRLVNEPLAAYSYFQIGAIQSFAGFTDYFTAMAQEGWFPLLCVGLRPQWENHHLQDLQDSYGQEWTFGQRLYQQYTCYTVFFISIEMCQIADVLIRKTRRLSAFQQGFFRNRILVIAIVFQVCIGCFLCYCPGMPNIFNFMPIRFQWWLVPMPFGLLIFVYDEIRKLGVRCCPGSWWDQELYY
T1 sequence (P18434 whole entry partner): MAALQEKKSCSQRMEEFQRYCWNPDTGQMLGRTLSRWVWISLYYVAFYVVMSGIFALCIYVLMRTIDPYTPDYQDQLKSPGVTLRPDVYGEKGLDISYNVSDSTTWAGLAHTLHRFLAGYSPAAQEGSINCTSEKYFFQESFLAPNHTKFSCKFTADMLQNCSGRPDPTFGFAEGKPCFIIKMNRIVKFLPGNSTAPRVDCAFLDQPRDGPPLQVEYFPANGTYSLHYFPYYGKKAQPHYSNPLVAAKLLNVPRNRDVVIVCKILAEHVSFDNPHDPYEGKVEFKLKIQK
Format: biochemical
Method in brief: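 Lyophilized hog gastric vesicles in Pipes/Tris pH 6.1 were preincubated 5 min with compounds (1% DMSO), then run with ATP for 30 min at 37 °C. Released phosphate was measured by malachite green at 620 nm; K^+-stimulated activity taken as the difference between reactions with and without K^+.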
`Cc1c(C)n(Cc2ccccc2F)c2c(OCc3ccc(Br)cc3)ccnc12` [Example 225, 7-(4-bromobenzyloxy)-1-(2-fluorobenzyl)-2,3-dimethyl-1H-pyrrolo[3,2-b]pyridine hydrochloride] was tested, and the IC50 was 620 nM. Work on `Cc1cccc(Cn2c(C)c(C)c3nccc(N4CCc5ccccc5C4)c32)c1` [Example 12, 1-(3-methylbenzyl)-7-(1,2,3,4-tetrahydroisoquinolin-2-yl)-2,3-dimethyl-1H-pyrrolo[3,2-b]pyridine hydrochloride] yielded an IC50 of 970 nM. `COc1cccc(Cn2c(C)c(C)c3nccc(OCc4cccc(C)c4)c32)c1` [Example 159, 1-(3-methoxybenzyl)-2,3-dimethyl-7-(3-methylbenzyloxy)-1H-pyrrolo[3,2-b]pyridine hydrochloride] gave an IC50 of 880 nM. `Cc1c(C)n(CC2CC2)c2c(NCc3ccc(F)cc3)ccnc12` [Example 255, N-(1-cyclopropylmethyl-2,3-dimethyl-1H-pyrrolo[3,2-b]pyridin-7-yl)-4-fluorobenzylamine hydrochloride] showed an IC50 of 550 nM. `Cc1ccc(Cn2c(C)c(C)c3nccc(OCc4ccc(Cl)cc4)c32)cc1` [Example 96, 7-(4-chlorobenzyloxy)-1-(4-methylbenzyl)-2,3-dimethyl-1H-pyrrolo[3,2-b]pyridine hydrochloride] showed an IC50 of 130 nM. For `COc1cccc(Cn2c(C)c(C)c3nccc(N4CCc5ccccc5C4)c32)c1` [Example 8, 1-(3-methoxybenzyl)-7-(1,2,3,4-tetrahydroisoquinolin-2-yl)-2,3-dimethyl-1H-pyrrolo[3,2-b]pyridine hydrochloride], the IC50 was 440 nM. For `COCCn1c(C)c(C)c2nccc(OCc3ccc(F)cc3)c21` [Example 127, 7-(4-fluorobenzyloxy)-1-(2-methoxyethyl)-2,3-dimethyl-1H-pyrrolo[3,2-b]pyridine sulfate], the IC50 was 40 nM. `Cc1c(C)n(CC2OCCO2)c2c(N3CCc4ccccc4C3)ccnc12` [Example 3, 1-(1,3-dioxolan-2-ylmethyl)-7-(1,2,3,4-tetrahydroisoquinolin-2-yl)-2,3-dimethyl-1H-pyrrolo[3,2-b]pyridine hydrochloride] was tested, and the IC50 was 640 nM. `Cc1c(C)n(CC2CCC2)c2c(OCc3cc(F)cc(F)c3)ccnc12` [Example 179, 1-cyclobutylmethyl-7-(3,5-difluorobenzyloxy)-2,3-dimethyl-1H-pyrrolo[3,2-b]pyridine hydrochloride] was tested, and the IC50 was 570 nM. With `Cc1c(C)n(CC(C)C)c2c(OCc3ccc4c(c3)OCO4)ccnc12` [Example 120, 7-(benzo[1,3]dioxol-5-ylmethoxy)-1-isobutyl-2,3-dimethyl-1H-pyrrolo[3,2-b]pyridine hydrochloride] the IC50 was 120 nM. In the case of `Cc1nc2c(C)c(C)n(Cc3ccccc3)c2c(OCc2ccc(F)cc2)c1C` [Example 264, 1-benzyl-7-(4-fluorobenzyloxy)-2,3,5,6-tetramethyl-1H-pyrrolo[3,2-b]pyridine hydrochloride], the IC50 is reported as 3070 nM. `CCn1c(C)c(C)c2nccc(N3CCc4ccccc4C3)c21` [Example 13, 1-ethyl-7-(1,2,3,4-tetrahydroisoquinolin-2-yl)-2,3-dimethyl-1H-pyrrolo[3,2-b]pyridine hydrochloride] was tested, and the IC50 was 800 nM. Work on `Cc1cccc(Cn2c(C)c(C)c3nccc(OCc4ccc(Cl)cc4)c32)c1` [Example 95, 7-(4-chlorobenzyloxy)-1-(3-methylbenzyl)-2,3-dimethyl-1H-pyrrolo[3,2-b]pyridine hydrochloride] yielded an IC50 of 520 nM. In the case of `CCCn1c(C)c(C)c2nccc(OCc3ccc(Br)cc3)c21` [Example 229, 7-(4-bromobenzyloxy)-2,3-dimethyl-1-propyl-1H-pyrrolo[3,2-b]pyridine hydrochloride], the IC50 is reported as 70 nM. For `COc1ccc(Cn2c(C)c(C)c3nccc(OCc4ccc(F)cc4)c32)cc1` [Example 58, 7-(4-fluorobenzyloxy)-1-(4-methoxybenzyl)-2,3-dimethyl-1H-pyrrolo[3,2-b]pyridine hydrochloride], the IC50 was 230 nM.
